One experiment concerns the target RIPK1 (Homo sapiens (Human), UniProt Q13546). The experiment in a line: RIPK1 ADP-Glo biochemical kinase assay. The procedure:
The final reaction volume was 5.0ul.
Adding 5 μl of ADP-Glo™ terminated the reaction.
For orientation: In ADP-Glo the light output rises with the ADP produced.

The subject of a further experiment is U937 cells. The experiment in a line: U937 cell necroptosis assay (TNFa + zVAD, CellTiter-Glo). To be noted: Homo sapiens. Format: cell-based, human. The procedure: (§1) In this example, U937 and L929 cells were exposed to compounds of the present disclosure and a cell necroptosis assay was conducted to evaluate the compounds' activity against human RIP1 and murine RIP1.
(§2) U937 and L929 cells were obtained from the American Type Culture Collection (Manassa, Va., USA). Both cells were maintained in logarithmic growth phase in complete RPMI 1640 media (Sigma, ST Louis, Mo., USA) supplemented with 10% fetal bovine serum (Sigma, ST Louis, Mo., USA) at 37° C. with 5% CO2. For necroptosis assay, L929 cells were plated for 18 h in 100 μL/well medium at 10K cells/well in Costar 96-well black clear-bottom plates (Fisher Scientific, Hampton, N.H., USA); U937 cells were plated on the day of the assay in 50 4/well medium containing 60 uM zVAD-fink (Lonza, Basel, Switzerland) at 50K cells/well. Medium from L929 cells were removed from the 96-well plates and replaced with 50 μL/well new medium containing 40 uM zVAD-fink. Each compound of the present disclosure evaluated in this example was serially diluted in DMSO from 2.5 mM in 4-fold dilutions, and then diluted 1:125 in complete medium. 50 μL/well 2× of the compound was then added to the cells in the plates. The cells were pre-incubated with the compound for 1 hour at 37° C. with 5% CO2 and before addition of 10 μL/well 1 1×TNFa (Peprotech, Rocky Hill, N.J., USA) to give a final concentration of 2 ng/mL for TNFa. The relative amount of necroptosis cells was determined by luminescent using a Wallac Victor2 Luminometer (PerkinElmer, Waltham, Mass., USA) and a CellTiter-Glo® Luminescent Cell Viability Reagent Assay (Promega, Madison, Wis., USA) added per manufacturer instructions after 18 hours of TNFa stimulation at 37° C. with 5% CO2. This example establishes that embodiments of the compounds described herein have unexpectedly potent activity against human RIP1 and murine RIP1, which allows their assessment in in vivo mouse models of disease.
(In general: In ATP-based viability assays light output follows the ATP content of the culture.)

A further experiment concerns L929 cells. The experiment in a line: L929 cell necroptosis assay (TNFa + zVAD, CellTiter-Glo). It is filed as cell-based, murine. To be noted: Mus musculus, L929, L929 cells, TNFa + zVAD; read-out: L929-CTG-recovery, L929, TNFa + zVAD (IC50). The procedure:
as §1
as §2, with “The cells were pre-incubated with the compound for 1 hour at 37° C. with 5% CO2 and before addition of 10 μL/well 1 1×TNFa (Peprotech, Rocky Hill, N.J., USA) to give a final concentration of 2 ng/mL for TNFa.” left out, “CO2.” for “CO2. This example establishes that embodiments of the compounds described herein have unexpectedly potent activity against human RIP1 and murine RIP1, which allows their assessment in in vivo mouse models of disease.”

Setting [1] is: read-out: RIPK1 ADP-Glo Kinase (IC50).
[2] abbreviates: U-937, U937 cells, TNFa + zVAD, read-out: U937 Zvad TNF CTG Recovery, U937, TNFa + zVAD (IC50).
The mark [3] stands for this setting: U-937, read-out: U937 Zvad TNF CTG Recovery, U937, TNFa + zVAD (IC50), U937 cells, TNFa + zVAD.

18 molecules from patent publication US11407736B2 (priority 2019, dated 2022) can be followed below.

As usually defined, the IC50 is the concentration that gives 50% inhibition.

Like-named read-outs stand apart in the source and are kept apart here.

Chain of RIPK1 (Q13546 whole entry, species assumed): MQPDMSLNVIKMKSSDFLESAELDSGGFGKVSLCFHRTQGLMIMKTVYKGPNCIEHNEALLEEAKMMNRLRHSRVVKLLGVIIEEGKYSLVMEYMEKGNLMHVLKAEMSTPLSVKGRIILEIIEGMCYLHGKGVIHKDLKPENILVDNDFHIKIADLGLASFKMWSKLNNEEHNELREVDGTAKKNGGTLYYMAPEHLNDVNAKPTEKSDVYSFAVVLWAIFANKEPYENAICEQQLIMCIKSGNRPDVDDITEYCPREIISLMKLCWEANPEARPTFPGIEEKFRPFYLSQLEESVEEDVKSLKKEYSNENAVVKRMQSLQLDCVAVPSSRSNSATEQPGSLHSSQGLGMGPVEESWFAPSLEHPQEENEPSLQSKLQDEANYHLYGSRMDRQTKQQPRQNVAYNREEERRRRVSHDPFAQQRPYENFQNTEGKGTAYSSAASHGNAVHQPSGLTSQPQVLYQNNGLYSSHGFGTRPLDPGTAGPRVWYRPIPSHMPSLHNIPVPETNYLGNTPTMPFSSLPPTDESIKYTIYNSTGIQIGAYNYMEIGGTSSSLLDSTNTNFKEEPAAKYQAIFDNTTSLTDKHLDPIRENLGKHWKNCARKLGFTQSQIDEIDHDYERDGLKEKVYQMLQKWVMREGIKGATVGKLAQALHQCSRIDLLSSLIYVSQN

In the case of `CN1C(=O)[C@@H](NC(=O)c2n[nH]c(Cc3ccccc3)n2)COc2ccc(CCC(N)=O)cc21` [Compound I-31, (S)—N-(7-(3-amino-3-oxopropyl)-5-methyl-4-oxo-2,3,4,5-tetrahydrobenzo[b][1,4]oxazepin-3-yl)-5-benzyl-1H-1,2,4-triazole-3-carboxamide], the IC50 came to 0.0334 µM on RIPK1 (setting [1]) and 0.0337 µM in the experiment on U937 cells (setting [2]). Turning to `CN1C(=O)[C@@H](NC(=O)c2cc(Oc3ccccc3)ccn2)COc2ccc(CN3CC4(CCOCC4)C3)cc21` [Compound I-150, (S)—N-(7-((7-oxa-2-azaspiro[3.5]nonan-2-yl)methyl)-5-methyl-4-oxo-2,3,4,5-tetrahydrobenzo[b][1,4]oxazepin-3-yl)-4-phenoxypicolinamide], the IC50 against RIPK1 is 0.0447 µM; with U937 cells (setting [2]), 0.0831 µM. As to `CN1C(=O)[C@@H](NC(=O)c2n[nH]c(Cc3ccccc3)n2)COc2ccc(CCC(=O)O)cc21` [Compound I-9, (S)-3-(3-(5-benzyl-1H-1,2,4-triazole-3-carboxamido)-5-methyl-4-oxo-2,3,4,5-tetrahydrobenzo[b][1,4]oxazepin-7-yl)propanoic acid], the IC50 came out at 0.189 µM on RIPK1 (setting [1]) and 0.362 µM with U937 cells (setting [2]). In the case of `CN1C(=O)[C@@H](NC(=O)c2cc(Oc3ccc(F)cc3)ccn2)COc2ccc(C#CC3(O)CCNCC3)cc21` [Compound I-133, (S)-4-(4-fluorophenoxy)-N-(7-((4-hydroxypiperidin-4-yl)ethynyl)-5-methyl-4-oxo-2,3,4,5-tetrahydrobenzo[b][1,4]oxazepin-3-yl)picolinamide], the IC50 at RIPK1 (setting [1]) is 0.173 µM; in the experiment on U937 cells (setting [2]) it was 0.492 µM. For the molecule `CN1C(=O)[C@@H](NC(=O)c2n[nH]c(Cc3ccccc3)n2)COc2ccc(CCC(=O)Nc3ccc4[nH]ncc4c3)cc21` [Compound I-2, (S)—N-(7-(3-((1H-indazol-5-yl)amino)-3-oxopropyl)-5-methyl-4-oxo-2,3,4,5-tetrahydrobenzo[b][1,4]oxazepin-3-yl)-5-benzyl-1H-1,2,4-triazole-3-carboxamide], the IC50 at RIPK1 (setting [1]) came out at 0.0157 µM; in the experiment with U937 cells (setting [2]), 0.0319 µM. With `COc1ccnc(C(=O)N[C@H]2COc3ccc(C#CC4(O)COC4)cc3N(C)C2=O)c1` [Compound I-162, (S)—N-(7-((3-hydroxyoxetan-3-yl)ethynyl)-5-methyl-4-oxo-2,3,4,5-tetrahydrobenzo[b][1,4]oxazepin-3-yl)-4-methoxypicolinamide], the results for the IC50 at RIPK1 (setting [1]) and in the experiment with U937 cells (setting [2]) were 0.0544 µM and 1.66 µM, respectively.

With `CN1C(=O)[C@@H](NC(=O)c2n[nH]c(Cc3ccccc3)n2)COc2ccc(C#CC3(O)CCC3)cc21` [Compound I-51, (S)-5-benzyl-N-(7-((1-hydroxycyclobutyl)ethynyl)-5-methyl-4-oxo-2,3,4,5-tetrahydrobenzo[b][1,4]oxazepin-3-yl)-1H-1,2,4-triazole-3-carboxamide], the concentration for half-maximal inhibition (IC50) at RIPK1 (setting [1]) worked out at 0.0317 µM.

For `CN1C(=O)[C@@H](NC(=O)c2ccc(Oc3ccccc3)cn2)COc2ccc(C#CC(C)(C)O)cc21` [Compound I-121, (S)—N-(7-(3-hydroxy-3-methylbut-1-yn-1-yl)-5-methyl-4-oxo-2,3,4,5-tetrahydrobenzo[b][1,4]oxazepin-3-yl)-5-phenoxypicolinamide], the IC50 at RIPK1 (setting [1]) came out at 12.4 µM; in the experiment with U937 cells (setting [2]) it was 30.3 µM. On to `CN1C(=O)[C@@H](NC(=O)c2cc(Oc3ccccc3)ccn2)COc2ccc(C#CC(=O)O)cc21` [Compound I-161, (S)-3-(5-methyl-4-oxo-3-(4-phenoxypicolinamido)-2,3,4,5-tetrahydrobenzo[b][1,4]oxazepin-7-yl)propiolic acid], for which the IC50 at RIPK1 (setting [1]) was found to be 0.0362 µM; with U937 cells (setting [2]), 0.0455 µM. In the case of `CN1C(=O)[C@@H](NC(=O)c2n[nH]c(Cc3ccccc3)n2)COc2ccc(CCC(=O)NC3CC3)cc21` [Compound I-13, (S)-5-benzyl-N-(7-(3-(cyclopropylamino)-3-oxopropyl)-5-methyl-4-oxo-2,3,4,5-tetrahydrobenzo[b][1,4]oxazepin-3-yl)-1H-1,2,4-triazole-3-carboxamide], the IC50 on RIPK1 (setting [1]) was determined as 0.0539 µM; with U937 cells (setting [2]), 0.0138 µM. For `COc1cc2ncnc(NC(=O)CCc3ccc4c(c3)N(C)C(=O)[C@@H](NC(=O)c3n[nH]c(Cc5ccccc5)n3)CO4)c2cc1OC` [Compound I-4, (S)-5-benzyl-N-(7-(3-((6,7-dimethoxyquinazolin-4-yl)amino)-3-oxopropyl)-5-methyl-4-oxo-2,3,4,5-tetrahydrobenzo[b][1,4]oxazepin-3-yl)-1H-1,2,4-triazole-3-carboxamide], the IC50 on RIPK1 (setting [1]) came out at 0.0568 µM; in the experiment on U937 cells (setting [2]) it was 0.0293 µM.

As for `CN1C(=O)[C@@H](NC(=O)c2n[nH]c(Cc3ccc(F)cc3F)n2)COc2ccc(CCC(=O)NC3CC3)cc21` [Compound I-27, (S)—N-(7-(3-(cyclopropylamino)-3-oxopropyl)-5-methyl-4-oxo-2,3,4,5-tetrahydrobenzo[b][1,4]oxazepin-3-yl)-5-(2,4-difluorobenzyl)-1H-1,2,4-triazole-3-carboxamide], the figures for the IC50 at RIPK1 (setting [1]) and in the experiment on U937 cells (setting [2]) were 0.158 µM and 0.0697 µM, respectively. Consider `CN1C(=O)[C@@H](NC(=O)c2cc(Oc3ccccc3)ccn2)COc2cc(N3CCC4(CCOCC4)CC3)ccc21` [II-26, (S)—N-(5-methyl-4-oxo-8-(3-oxa-9-azaspiro[5.5]undecan-9-yl)-2,3,4,5-tetrahydrobenzo[b][1,4]oxazepin-3-yl)-4-phenoxypicolinamide], for which the IC50 against RIPK1 is 0.193 µM; with U937 cells (setting [2]), 0.51 µM.

Consider `CN1C(=O)[C@@H](NC(=O)c2cc(Oc3ccccc3)ccn2)COc2ccc(C#CC3(O)CS(=O)(=O)C3)cc21` [Compound I-209, (S)—N-(7-((3-hydroxy-1,1-dioxidothietan-3-yl)ethynyl)-5-methyl-4-oxo-2,3,4,5-tetrahydrobenzo[b][1,4]oxazepin-3-yl)-4-phenoxypicolinamide], for which the IC50 worked out at 0.106 µM at RIPK1 (setting [1]) and 0.0595 µM with U937 cells (setting [3]). Regarding `COc1ccnc(C(=O)N[C@H]2COc3ccc(C#CC(C)(C)O)cc3N(C)C2=O)c1` [Compound I-163, (S)—N-(7-(3-hydroxy-3-methylbut-1-yn-1-yl)-5-methyl-4-oxo-2,3,4,5-tetrahydrobenzo[b][1,4]oxazepin-3-yl)-4-methoxypicolinamide], the IC50 came out at 0.509 µM at RIPK1 (setting [1]) and 3.32 µM with U937 cells (setting [3]). Take `CN1C(=O)[C@@H](NC(=O)n2cc(Cc3ccc(F)cc3F)cn2)COc2ccc(C#CC(C)(C)CO)cc21` [Compound I-239, (S)-4-(2,4-Difluorobenzyl)-N-(7-(4-hydroxy-3,3-dimethylbut-1-yn-1-yl)-5-methyl-4-oxo-2,3,4,5-tetrahydrobenzo[b][1,4]oxazepin-3-yl)-1H-pyrazole-1-carboxamide]: the IC50 is 0.218 µM in the experiment on L929 cells and 0.0088 µM in the experiment with U937 cells (setting [2]). Turning to `CN1C(=O)[C@@H](NC(=O)c2cc(Oc3ccc(F)cc3)ccn2)COc2ccc(C#CC(C)(C)COP(=O)(O)O)cc21` [Compound I-174, (S)-4-(3-(4-(4-fluorophenoxy)picolinamido)-5-methyl-4-oxo-2,3,4,5-tetrahydrobenzo[b][1,4]oxazepin-7-yl)-2,2-dimethylbut-3-yn-1-yl dihydrogen phosphate], the IC50 in the experiment on L929 cells is 16.5 µM; in the experiment with U937 cells (setting [2]) it was 0.438 µM.

Take `CN1C(=O)[C@@H](NC(=O)c2cc(Oc3ccc(F)cc3)ccn2)COc2ccc(C#CC(C)(C)COC(=O)CCC(=O)O)cc21` [Compound I-170, (S)-4-((4-(3-(4-(4-fluorophenoxy)picolinamido)-5-methyl-4-oxo-2,3,4,5-tetrahydrobenzo[b][1,4]oxazepin-7-yl)-2,2-dimethylbut-3-yn-1-yl)oxy)-4-oxobutanoic acid]: the IC50 in the experiment on L929 cells was 1.83 µM; with U937 cells (setting [2]) it was 0.0148 µM.
